From ChEMBL document CHEMBL1201862, “PubChem BioAssay data set” (2004)
The source made the active and inactive calls.

Key:
[1] = A Cell Based Secondary Assay To Explore Cytotoxicity of Compounds that Sensitize Mycobacterium Tuberculosis to Beta-Lactam Antibiotics.; format: functional
[2] = target: T1, Acyl-homoserine lactone acylase PvdQ (Pseudomonas aeruginosa (strain LESB58), UniProt Q9I194); assay: PvdQ acylase enzyme activity blockers – biochemical, fluorescence, plate reader and imaging, cherry-picks, dose response (AID 493231)
T1 sequence (Q9I194 whole entry): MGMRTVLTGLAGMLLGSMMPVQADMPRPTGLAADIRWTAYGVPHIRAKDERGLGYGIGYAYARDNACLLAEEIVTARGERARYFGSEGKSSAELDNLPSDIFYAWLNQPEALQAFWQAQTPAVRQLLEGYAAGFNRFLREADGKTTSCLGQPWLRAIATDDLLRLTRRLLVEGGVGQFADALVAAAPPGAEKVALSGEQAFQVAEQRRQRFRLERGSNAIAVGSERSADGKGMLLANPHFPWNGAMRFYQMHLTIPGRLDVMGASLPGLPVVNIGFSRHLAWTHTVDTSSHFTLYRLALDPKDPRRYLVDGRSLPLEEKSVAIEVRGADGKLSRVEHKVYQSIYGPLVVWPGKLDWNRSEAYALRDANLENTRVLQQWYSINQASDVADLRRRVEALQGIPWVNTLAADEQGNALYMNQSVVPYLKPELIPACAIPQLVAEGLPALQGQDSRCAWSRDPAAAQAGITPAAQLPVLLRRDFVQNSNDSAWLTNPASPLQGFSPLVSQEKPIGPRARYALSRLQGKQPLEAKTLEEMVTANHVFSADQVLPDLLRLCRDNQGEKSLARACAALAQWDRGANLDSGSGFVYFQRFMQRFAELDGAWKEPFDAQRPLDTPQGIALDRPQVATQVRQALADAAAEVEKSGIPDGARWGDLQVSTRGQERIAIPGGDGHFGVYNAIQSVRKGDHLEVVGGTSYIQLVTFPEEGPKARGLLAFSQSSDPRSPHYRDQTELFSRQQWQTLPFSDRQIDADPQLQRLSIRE

Aminopeptidase N = target: T2, Aminopeptidase N (Plasmodium falciparum FcB1/Columbia, UniProt O96935); assay: malaria alanyl aminopeptidase activity blockers – biochemical, fluorogenic H-Leu-NHMec substrate, 1536-well (AID 1445); parameters: species or system Plasmodium falciparum 3D7, 3D7
T2 sequence (O96935 whole entry): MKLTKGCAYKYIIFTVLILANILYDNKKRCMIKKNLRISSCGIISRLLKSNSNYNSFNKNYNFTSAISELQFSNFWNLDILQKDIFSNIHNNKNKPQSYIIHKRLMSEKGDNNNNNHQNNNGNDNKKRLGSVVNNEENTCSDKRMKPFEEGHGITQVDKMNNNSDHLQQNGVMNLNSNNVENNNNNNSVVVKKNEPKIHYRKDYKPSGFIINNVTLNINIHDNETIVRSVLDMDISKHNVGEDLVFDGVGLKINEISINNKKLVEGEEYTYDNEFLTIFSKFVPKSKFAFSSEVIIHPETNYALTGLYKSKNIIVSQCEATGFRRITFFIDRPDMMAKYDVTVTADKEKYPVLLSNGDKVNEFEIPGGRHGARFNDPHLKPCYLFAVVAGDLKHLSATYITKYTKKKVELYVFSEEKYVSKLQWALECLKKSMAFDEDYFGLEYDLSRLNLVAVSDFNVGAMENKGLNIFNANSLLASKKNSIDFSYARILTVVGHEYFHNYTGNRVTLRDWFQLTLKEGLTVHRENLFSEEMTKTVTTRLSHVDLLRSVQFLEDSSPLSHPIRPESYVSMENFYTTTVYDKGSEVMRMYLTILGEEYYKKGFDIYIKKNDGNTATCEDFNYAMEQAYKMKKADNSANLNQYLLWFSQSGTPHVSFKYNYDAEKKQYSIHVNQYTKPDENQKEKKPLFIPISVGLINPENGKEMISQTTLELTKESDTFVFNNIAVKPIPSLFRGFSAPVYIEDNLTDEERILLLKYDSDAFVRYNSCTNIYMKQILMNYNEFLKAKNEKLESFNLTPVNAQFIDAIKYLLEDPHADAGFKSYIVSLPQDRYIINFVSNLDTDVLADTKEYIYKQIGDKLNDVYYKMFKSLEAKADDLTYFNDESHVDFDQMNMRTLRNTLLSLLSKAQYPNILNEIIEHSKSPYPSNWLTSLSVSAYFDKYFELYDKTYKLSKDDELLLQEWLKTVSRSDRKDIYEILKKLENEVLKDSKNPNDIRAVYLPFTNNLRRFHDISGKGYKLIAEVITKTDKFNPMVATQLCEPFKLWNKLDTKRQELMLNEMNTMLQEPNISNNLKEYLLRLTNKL

[3] = decrease of insulin promoter-GFP reporter – imaging, high-content screening, mouse beta cells (AID 1628); format: functional; details: MIN6
[4] = MIN6 cell viability loss – mouse insulinoma, cytotoxicity control, dose response (AID 2122); format: functional;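 also: confirmatory high-throughput counterscreen run to flag cytotoxic compounds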
ORF 73 = target: T3, ORF 73 (Human herpesvirus 8, UniProt O40947); assay: KSHV LANA DNA-binding disruption – biochemical, fluorescence polarization, cherry-picked samples, dose response (AID 504725); parameters: species or system Human gammaherpesvirus 8;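 also: fluorescence polarization of a labeled DNA duplex reporting LANA DNA binding; potency is for inhibitors that block LANA binding to the DNA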
T3 sequence (O40947 whole entry): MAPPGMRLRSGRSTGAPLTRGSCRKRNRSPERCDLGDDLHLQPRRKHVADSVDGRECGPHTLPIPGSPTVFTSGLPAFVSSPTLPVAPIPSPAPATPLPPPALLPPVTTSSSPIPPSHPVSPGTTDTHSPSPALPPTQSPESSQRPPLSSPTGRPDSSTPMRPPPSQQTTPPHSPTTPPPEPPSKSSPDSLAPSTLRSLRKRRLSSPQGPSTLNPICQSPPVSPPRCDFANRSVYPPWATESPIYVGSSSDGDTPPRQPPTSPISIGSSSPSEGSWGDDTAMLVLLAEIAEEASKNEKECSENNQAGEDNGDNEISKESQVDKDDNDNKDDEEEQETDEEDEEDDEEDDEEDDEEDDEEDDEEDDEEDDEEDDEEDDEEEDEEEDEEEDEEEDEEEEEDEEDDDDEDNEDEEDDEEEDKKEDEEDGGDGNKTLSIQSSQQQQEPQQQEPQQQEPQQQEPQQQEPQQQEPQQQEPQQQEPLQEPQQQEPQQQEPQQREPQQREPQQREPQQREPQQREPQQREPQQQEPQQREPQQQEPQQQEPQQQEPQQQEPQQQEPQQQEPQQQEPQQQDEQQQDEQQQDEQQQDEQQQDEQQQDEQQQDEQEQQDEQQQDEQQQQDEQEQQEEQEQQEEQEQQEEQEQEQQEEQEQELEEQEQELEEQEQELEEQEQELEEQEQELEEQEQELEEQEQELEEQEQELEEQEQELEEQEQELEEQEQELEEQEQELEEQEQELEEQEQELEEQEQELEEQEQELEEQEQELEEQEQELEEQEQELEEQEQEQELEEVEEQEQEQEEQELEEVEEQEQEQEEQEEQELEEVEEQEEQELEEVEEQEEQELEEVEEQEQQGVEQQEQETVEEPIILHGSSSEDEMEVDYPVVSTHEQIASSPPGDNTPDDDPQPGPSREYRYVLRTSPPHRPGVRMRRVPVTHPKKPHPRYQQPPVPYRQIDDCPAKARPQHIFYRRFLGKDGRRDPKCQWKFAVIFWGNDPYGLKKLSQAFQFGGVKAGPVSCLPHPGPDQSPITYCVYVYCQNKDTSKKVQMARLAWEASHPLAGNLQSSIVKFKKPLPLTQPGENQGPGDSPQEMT

HEK293 = assay: EBV LMP1 TES2 canonical NF-kB signalling blockers – cell-based, HEK293, luciferase, cherry-pick, dose response (AID 588343); format: functional; details: Homo sapiens
[5] = Trypanosoma cruzi growth suppression in host cells – NIH3T3 host cells, beta-gal luminescence, confirmation (AID 2044); format: functional, cell-based;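 also: intracellular parasites grown in NIH/3T3 mouse fibroblasts as host cells; luminescent beta-galactosidase reporter signal from transgenic T. cruzi replicating inside host cells; inhibitors lower the luminescence signal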
[6] = NIH3T3 cell viability loss – ATP luminescence, mouse fibroblasts, counter-screen, dose response (AID 2010); format: functional, cell-based;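 also: cells exposed to compound for about 90 hours before reading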
Leucine aminopeptidase = target: T4, Leucine aminopeptidase (Plasmodium falciparum 3D7, UniProt Q8IL11); assay: P. falciparum M17LAP inhibitors, primary screen, biochemical, fluorogenic H-Leu-NHMec substrate, 1536-well (AID 1619); format: functional
T4 sequence (Q8IL11 whole entry): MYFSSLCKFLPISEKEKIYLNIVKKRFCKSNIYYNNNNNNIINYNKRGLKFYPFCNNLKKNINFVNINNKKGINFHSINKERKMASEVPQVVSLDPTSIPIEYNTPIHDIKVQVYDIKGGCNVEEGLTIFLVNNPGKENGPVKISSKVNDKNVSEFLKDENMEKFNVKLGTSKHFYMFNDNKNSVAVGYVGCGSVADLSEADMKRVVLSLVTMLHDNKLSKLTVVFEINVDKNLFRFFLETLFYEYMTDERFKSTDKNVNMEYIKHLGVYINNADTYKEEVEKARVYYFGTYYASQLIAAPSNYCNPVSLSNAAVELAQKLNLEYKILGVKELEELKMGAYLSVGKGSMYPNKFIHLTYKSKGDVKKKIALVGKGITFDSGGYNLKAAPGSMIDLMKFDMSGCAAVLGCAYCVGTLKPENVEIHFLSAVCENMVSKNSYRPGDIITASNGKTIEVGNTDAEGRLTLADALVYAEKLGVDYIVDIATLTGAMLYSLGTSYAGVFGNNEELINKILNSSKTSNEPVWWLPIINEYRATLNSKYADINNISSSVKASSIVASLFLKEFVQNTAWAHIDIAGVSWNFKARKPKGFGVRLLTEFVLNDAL

[7] = target: T5, Rac GTPase-activating protein 1 (Homo sapiens, UniProt Q9H0H5); assay: blockers of MgcRacGAP-driven Rac1 GTP hydrolysis – biochemical, ADP Hunter fluorescence, primary and confirmatory, confirmation (AID 624330); format: functional
T5 sequence (Q9H0H5 whole entry): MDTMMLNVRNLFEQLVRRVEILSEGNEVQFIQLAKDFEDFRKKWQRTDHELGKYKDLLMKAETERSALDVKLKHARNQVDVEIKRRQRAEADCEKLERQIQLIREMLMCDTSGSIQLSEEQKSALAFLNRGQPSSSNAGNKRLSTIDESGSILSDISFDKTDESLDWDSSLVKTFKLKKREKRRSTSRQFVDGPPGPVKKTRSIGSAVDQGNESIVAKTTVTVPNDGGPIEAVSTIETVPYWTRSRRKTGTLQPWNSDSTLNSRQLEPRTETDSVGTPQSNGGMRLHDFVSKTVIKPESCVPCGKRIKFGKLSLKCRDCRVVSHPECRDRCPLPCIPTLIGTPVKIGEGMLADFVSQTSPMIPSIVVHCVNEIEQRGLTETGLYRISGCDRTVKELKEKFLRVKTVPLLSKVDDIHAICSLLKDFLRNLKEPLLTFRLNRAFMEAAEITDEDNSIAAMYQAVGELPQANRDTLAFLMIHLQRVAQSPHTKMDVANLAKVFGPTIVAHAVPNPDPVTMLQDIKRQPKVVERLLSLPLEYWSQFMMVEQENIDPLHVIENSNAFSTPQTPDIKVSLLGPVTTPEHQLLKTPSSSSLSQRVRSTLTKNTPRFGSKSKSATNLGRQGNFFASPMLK

Large T antigen = Large T antigen (Simian virus 40, UniProt P03070); format: functional, Betapolyomavirus macacae;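 also: Confirmatory-stage PubChem screen for compounds that inhibit SV40 T antigen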
Chain of Large T antigen (P03070 whole entry): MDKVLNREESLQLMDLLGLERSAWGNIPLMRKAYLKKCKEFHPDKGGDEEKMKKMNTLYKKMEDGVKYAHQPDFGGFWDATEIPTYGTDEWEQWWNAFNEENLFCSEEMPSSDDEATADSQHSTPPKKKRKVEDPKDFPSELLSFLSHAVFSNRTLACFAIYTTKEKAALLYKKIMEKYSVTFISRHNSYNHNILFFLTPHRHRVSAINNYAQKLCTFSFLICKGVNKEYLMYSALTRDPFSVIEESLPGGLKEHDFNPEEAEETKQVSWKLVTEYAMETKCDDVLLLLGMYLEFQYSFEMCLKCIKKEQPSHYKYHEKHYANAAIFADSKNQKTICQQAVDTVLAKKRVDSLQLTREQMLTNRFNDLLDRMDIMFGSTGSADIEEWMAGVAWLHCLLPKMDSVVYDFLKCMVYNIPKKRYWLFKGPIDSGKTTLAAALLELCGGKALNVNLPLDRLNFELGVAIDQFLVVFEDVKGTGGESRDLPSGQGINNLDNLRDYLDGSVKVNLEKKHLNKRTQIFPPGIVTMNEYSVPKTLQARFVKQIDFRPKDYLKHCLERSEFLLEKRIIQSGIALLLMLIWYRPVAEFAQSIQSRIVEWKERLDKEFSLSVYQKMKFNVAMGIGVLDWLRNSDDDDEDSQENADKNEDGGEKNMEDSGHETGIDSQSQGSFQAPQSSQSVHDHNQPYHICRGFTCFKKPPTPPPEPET

Question: With `COCc1cc(O)n2ncc(-c3ccccc3)c2n1` as the compound, how does the CC50 [1] read?
Answer: > 40 µM (active)

Question: With `O=C(/C=C/c1ccc2c(c1)OCCO2)c1ccccc1` as the compound, how does the AC50 [2] read?
Answer: 29.3 µM (active)

Question: Which IC50 (Aminopeptidase N) does the source give for `CCOC(=O)N1CCN(C(=O)c2ccc3c(c2)sc2nc(-c4ccccc4)cn23)CC1` here?
Answer: 73.4 µM (active)

Question: For `Cn1nc(-c2ccc(OCC(=O)NCC3CCCO3)cc2)c2ccccc2c1=O` (stereo not drawn), which CC50 [1] is on record?
Answer: > 40 µM (active)

Question: With `Cc1cccc(NC(S)=NC(C)(C)CC(C)(C)C)c1` as the compound, how does the IC50 [3] read?
Answer: 1.92 µM (active)

Question: And the IC50 [4]?
Answer: 1.87 µM (active)

Question: Which IC50 (Aminopeptidase N) does the source give for `O=C(/C=C/c1cccc([N+](=O)[O-])c1)N1CCN(Cc2ccc3c(c2)OCO3)CC1` here?
Answer: 108 µM (active)

Question: With `COc1ccc(Cn2c(C)nc3c(c(=O)c4ccccc4n3C)c2=O)cc1` as the compound, how does the CC50 [1] read?
Answer: > 40 µM (active)

Question: Which AC50 (ORF 73) does the source give for `COCCN(CCOC)Cc1c(O)ccc2c1O/C(=C\c1ccco1)C2=O` here?
Answer: 11.9 µM (active)

Question: For `Cc1ccc(NC(=O)Nc2cccs2)nc1`, which IC50 (Aminopeptidase N) is on record?
Answer: 26.4 µM (active)

Question: Which IC50 [3] does the source give for `COc1ccc(NC(=S)N(CCCN2CCCC2)Cc2cccn2Cc2ccc(Cl)cc2)cc1Cl` here?
Answer: 2.89 µM (active)

Question: What about the IC50 [4] of the same compound?
Answer: 3.27 µM (active)

Question: With `C=CCOC(=O)c1ccc(-n2cnc(C)n2)nc1` as the compound, how does the AC50 [2] read?
Answer: 4.58 µM (active)

Question: With `CCOc1ccc(Nc2ncnc3ccc([N+](=O)[O-])cc23)cc1` as the compound, how does the AC50 (HEK293) read?
Answer: 8.95 µM (active)

Question: And the EC50 [5]?
Answer: 2.22 µM (active)

Question: And the EC50 [6]?
Answer: > 60 µM (not active)

Question: What about the AC50 [2] of the same compound?
Answer: 30.8 µM (active)

Question: Which AC50 [2] does the source give for `O=[N+]([O-])c1ccc(-c2cccnc2)cc1` here?
Answer: 13.1 µM (active)

Question: Which results are given for `COc1ccc2c(c1)c(C(=O)N/N=C/c1ccc(O)c(O)c1)c(C)n2C`?
Answer: IC50 (Leucine aminopeptidase): 29.7 µM (active); IC50 [7]: 23.5 µM (active); IC50 (Large T antigen): 16.7 µM (active)

Question: Which IC50 [3] does the source give for `C/C(=N\Nc1cc(N2CCOCC2)nc(C)n1)c1cccc([N+](=O)[O-])c1` here?
Answer: 1.98 µM (active)

Question: And the IC50 [4]?
Answer: 3.14 µM (active)
